Where a SMILES comes first, the peptide text is derived from it. The star is where a group is joined. βNA = c1ccc2cc(N*)ccc2c1; NHcHex = C1CCC(N*)CC1; NHPh = c1ccc(N*)cc1; X1 = c1ccc(NN*)cc1; NHiPr = CC(C)N*; For = O=C*
How the values were obtained:
CEM cells = assay: Cyclic GMP assay in CEM cells; assay type: cell-based, human; conditions: for T cell suppressor activity: thymopentin-like activity, cyclic GMP assays on CEM cells; for induction of intracellular cyclic GMP (active / inactive peptides): CEM cells, dose-response curves from 1 to 1000 micrograms/ml, Fig. 1, composite of 6 experiments, compared with thymopentin
From the text: This assay measures the ability of a peptide of this invention to bind to the cell membrane receptor of the intact CEM cell and selectively stimulate production of cyclic GMP, as does human thymopentin.
The CEM cell line was obtained from the American Type Culture Collection of Rockville, Md. CEM cells were freshly seeded and grown for 3 days with harvesting as described in T. Audhya et al, Arch. Biochem Biophys., 234: 167-177 (1984). The cells were washed 3 times in PBS and resuspended in RPMI 1640 at a concentration of 1.0 x 10⁷ cells/ml and were allowed to equilibrate at 37°C for 30 minutes before the addition of the test peptides (25 ul) and control peptides. The incubation was allowed to proceed in a shaking water bath for 4-5 minutes and was then terminated by addition of 1 ml ice-cold TCA (10 percent).
The cells in TCA were homogenized and sonicated to release cyclic nucleotide. The suspension was centrifuged at 3000 x g for 20 minutes at 4°C. The resulting precipitate was dissolved in 0.1 N NaOH to determine the protein content. TCA was removed from the supernatant fraction by extracting 4 times with 5 ml of water-saturated ET₂O. After the final extraction, the remaining traces of ether were removed by heating for 10 minutes in a 50°C water bath. After lyophilization the sample was reconstituted in 50 mM acetate buffer (pH 6.2) for radioimmunoassay of cyclic GMP.
For example, dose-response curves from 1 to 1000 micrograms/ml of peptide, were evaluated for each compound. […] A threshold activity was determined for each peptide tested. This is defined as the lowest concentration of the test peptide which induced an intracellular level of cyclic GMP greater than two standard deviations above the control. The controls had intracellular cyclic GMP values of less than 0.9 picomoles/ml (mean±standard deviation). Test results were considered positive if the level of cyclic GMP was greater than 2 times that determined for the parallel negative control. Active peptides had activity thresholds ranging from […].

MOLT-4 cells = assay: T cell helper activity, MOLT-4 T cell line (intracellular cGMP); assay type: cell-based, human; conditions: thymopentin-like; assay not described for these peptides
helper T cell activity = conditions: mice; cited from earlier work

Row | Compound | T cell suppressor activity (CEM cells) | induction of intracellular cyclic GMP (active / inactive peptides) (CEM cells) | T cell helper activity (MOLT-4 cells) | helper T cell activity in vivo (helper T cell activity)
1 | CCNC(=O)[C@@H](NC(=O)[C@H](CCC(=O)O)NC(=O)[C@@H]1CCCN1C(=O)[C@H](CCCNC(=N)N)NC(C)=O)C(C)C [Acetyl-Arg-Pro-Glu-Val-Ethylamide, reference compound] (Ac-RPEV-NHEt) | do not display T cell suppressor stimulatory activity of thymopentin | – | – | –
2 | CC(C)[C@H](NC(=O)[C@H](CC(=O)O)NC(=O)[C@H](CCCCN)NC(=O)[C@@H](N)CCCNC(=N)N)C(=O)Nc1ccc2ccccc2c1 [Arg-Lys-Asp-Val-2-Naphthylamide, reference compound] (H-RKDV-βNA) | do not display T cell suppressor stimulatory activity of thymopentin | inactive | – | –
3 | CC(C)[C@H](NC(=O)[C@H](CC(=O)O)NC(=O)[C@H](CCCCN)NC(=O)[C@@H](N)CCCNC(=N)N)C(=O)Nc1ccccc1 [Arg-Lys-Asp-Val-Anilineamide] (H-RKDV-NHPh) | – | active | – | –
4 | CC(C)[C@H](NC(=O)[C@H](CC(=O)O)NC(=O)[C@H](CCCCN)NC(=O)[C@@H](N)CCCNC(=N)N)C(=O)NC1CCCCC1 [Arg-Lys-Asp-Val-Cyclohexylamide] (H-RKDV-NHcHex) | – | active | – | –
5 | CC(C)NC(=O)[C@@H](NC(=O)[C@H](CC(=O)O)NC(=O)[C@H](CCCCN)NC(=O)[C@@H](N)CCCNC(=N)N)C(C)C [Arg-Lys-Asp-Val-Isopropylamide, Arg-Lys-Asp-Val-2-propylamide] (H-RKDV-NHiPr) | display both T cell suppressor and helper activities like thymopentin | – | display both T cell suppressor and helper activities like thymopentin | –
6 | CC(C)[C@H](NC(=O)[C@H](CC(=O)O)NC(=O)[C@H](CCCCN)NC(=O)[C@@H](N)CCCNC(=N)N)C(=O)NNc1ccccc1 [Arg-Lys-Asp-Val-Phenylhydrazide, Arg-Lys-Asp-Val-2-Phenylhydrazide] (H-RKDV-X1) | – | active | – | –
7 | CC(C)NC(=O)[C@@H](NC(=O)[C@H](CC(=O)O)NC(=O)[C@@H]1CCCN1C(=O)[C@@H](N)CCCNC(=N)N)C(C)C [Arg-Pro-Asp-Val-Isopropylamide] (H-RPDV-NHiPr) | display both T cell suppressor and helper activities like thymopentin | active | display both T cell suppressor and helper activities like thymopentin | –
8 | CNC(=O)[C@@H](NC(=O)[C@H](CC(=O)O)NC(=O)[C@@H]1CCCN1C(=O)[C@H](CCCNC(=N)N)NC=O)C(C)C [Formyl-Arg-Pro-Asp-Val-Methylamide, N-formyl-Arg-Pro-Asp-Val-Methylamide] (For-RPDV-NHMe) | display both T cell suppressor and helper activities like thymopentin | – | display both T cell suppressor and helper activities like thymopentin | –
9 | Arg-Lys-Asp-Val-Dimethylamide [reference compound] | do not display T cell suppressor stimulatory activity of thymopentin | inactive | – | –
10 | Arg-Lys-Asp-Val-Piperidineamide | – | active | – | –
11 | Arg-Lys-Glu-Val-Tyr [SP-5] | – | – | – | stimulates helper T cell activity in vivo in mice
12 | Arg-Pro-Asp-Val-Morpholinoamide [reference compound] | do not display T cell suppressor stimulatory activity of thymopentin | – | – | –

From patent publication EP0361977A2, “Peptides having T cell suppressor activity” (IMM[…] INSTITUTE, INC., priority 1988, dated 1990)
